{
  "source": "paper PMC10095747",
  "about": "“Modulatory Effects of Atractylodin and β-Eudesmol on Human Cytochrome P450 Enzymes: Potential Drug-Drug Interactions” (Molecules, 2023)",
  "key": {"[1]": {"test_system": "all rCYP450s (rCYP1A2, rCYP2C9, rCYP2C19, rCYP2D6, rCYP3A4)", "test": "luminogenic CYP450 inhibition assay, statement over all five rCYP450s", "source_text": "The luminescent cytochrome P450 assay was used to determine CYP450-mediated (CYP1A2, 2C9, 2C19, 2D6, and 3A4) metabolism of atractylodin and β-eudesmol. The assay consisted of each recombinant human CYP450 (rCYP450), control membranes lacking P450 activity, a luminogenic CYP450 substrate (luciferin-ME substrate for rCYP1A2, luciferin-H substrate for rCYP2C9, luciferin-H EGE substrate for rCYP2C19, luciferin-ME EGE substrate for rCYP2D6, and luciferin-IPA substrate for rCYP3A4), KPO4 buffer, luciferin free water, NADPH regeneration system, and a luciferin detection reagent. The rCYP450 enzymes were generated from a baculovirus-infected insect cell expression system. The concentrations of the recombinant CYPs used were 0.5 (rCYP1A2 and rCYP2C9), 0.25 (rCYP2C19 and rCYP2D6) or 0.2 (rCYP3A4) pmol (0.5μL) per reaction. […] A luciferin product was produced after adding 25 µL of NADPH Regeneration System (solution A, solution B, and luciferin-free water) and incubated at 37 °C for 10 (rCYP1A2 and rCYP3A4), 20 (rCYP2C19 and rCYP2C9) or 30 (rCYP2D6) minutes. The reaction was stopped and converted to a luminescent signal after adding Luciferin Detection Reagent (50 µL) and incubated at 25 °C for 20 min. The luminescence signals obtained were determined using a Varioskan® Flash microplate reader (Waltham, MA, USA). The magnitude of luminescence in all of the samples represented CYP450 activity. […]"}, "[2]": {"target": "T1, rCYP1A2 (Homo sapiens, UniProt P05177)", "T1 sequence (P05177 1-516)": "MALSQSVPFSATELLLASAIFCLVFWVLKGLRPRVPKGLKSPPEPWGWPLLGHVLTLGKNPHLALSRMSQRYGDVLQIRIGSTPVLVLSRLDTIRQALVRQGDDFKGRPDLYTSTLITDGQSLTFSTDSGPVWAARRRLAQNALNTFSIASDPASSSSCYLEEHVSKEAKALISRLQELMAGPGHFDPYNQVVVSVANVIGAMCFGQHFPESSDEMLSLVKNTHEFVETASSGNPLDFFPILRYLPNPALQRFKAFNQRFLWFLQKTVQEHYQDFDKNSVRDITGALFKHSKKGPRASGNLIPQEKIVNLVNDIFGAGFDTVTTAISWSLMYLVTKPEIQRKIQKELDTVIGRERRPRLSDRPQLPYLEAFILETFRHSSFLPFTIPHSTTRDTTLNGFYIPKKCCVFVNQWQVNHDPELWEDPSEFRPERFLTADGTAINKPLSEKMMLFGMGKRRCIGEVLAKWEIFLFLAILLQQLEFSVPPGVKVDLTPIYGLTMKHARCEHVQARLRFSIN", "test": "luminogenic P450-Glo CYP450 inhibition assay, rCYP1A2", "settings": "three independent experiments", "source_text": "The luminescent cytochrome P450 assay was used to determine CYP450-mediated (CYP1A2, 2C9, 2C19, 2D6, and 3A4) metabolism of atractylodin and β-eudesmol. The assay consisted of each recombinant human CYP450 (rCYP450), control membranes lacking P450 activity, a luminogenic CYP450 substrate (luciferin-ME substrate for rCYP1A2, luciferin-H substrate for rCYP2C9, luciferin-H EGE substrate for rCYP2C19, luciferin-ME EGE substrate for rCYP2D6, and luciferin-IPA substrate for rCYP3A4), KPO4 buffer, luciferin free water, NADPH regeneration system, and a luciferin detection reagent. The rCYP450 enzymes were generated from a baculovirus-infected insect cell expression system. The concentrations of the recombinant CYPs used were 0.5 (rCYP1A2 and rCYP2C9), 0.25 (rCYP2C19 and rCYP2D6) or 0.2 (rCYP3A4) pmol (0.5μL) per reaction. […] A luciferin product was produced after adding 25 µL of NADPH Regeneration System (solution A, solution B, and luciferin-free water) and incubated at 37 °C for 10 (rCYP1A2 and rCYP3A4), 20 (rCYP2C19 and rCYP2C9) or 30 (rCYP2D6) minutes. The reaction was stopped and converted to a luminescent signal after adding Luciferin Detection Reagent (50 µL) and incubated at 25 °C for 20 min. The luminescence signals obtained were determined using a Varioskan® Flash microplate reader (Waltham, MA, USA). The magnitude of luminescence in all of the samples represented CYP450 activity. […] All stock solutions were diluted with luciferin-free water until the final concentration of organic solvent was less than 0.25% (v/v) of the total reaction. The concentration range of atractylodin and β-eudesmol used were 2.74–686 µM and 2.25–562 µM, respectively. […] The concentration that inhibited the activity of each rCYP450 by 50% (IC50) was calculated using Calcusyn software (Cambridge, UK). Data are reported as the median (range) of the three independent experiments."}, "[3]": {"test_system": "hCYP2C19", "parameters": "method as in PMID 35139770", "settings": "ligand-binding difference spectroscopy; cited from earlier work"}, "[4]": {"test_system": "hCYP3A4", "parameters": "method as in PMID 35139770", "settings": "ligand-binding difference spectroscopy; cited from earlier work"}, "[5]": {"test_system": "hCYP2C9", "parameters": "method as in PMID 35139770", "settings": "ligand-binding difference spectroscopy; cited from earlier work"}, "[6]": {"test_system": "hCYP1A2", "parameters": "method as in PMID 35139770", "settings": "ligand-binding difference spectroscopy; cited from earlier work"}},
  "note": "Where two headings read alike, the source gives them in different places.",
  "data": [
    {"smiles": "C/C=C/C#CC#C/C=C/c1ccco1", "note": "[Atractylodin]", "values": [
      {"measurement": "inhibitory effects on all rCYP450s (potency class)", "setting": "[1]", "value": "weak (weak (IC50 ≥ 50 µM))"},
      {"measurement": "Median IC50 (Range) rCYP1A2", "setting": "[2]; median (range)", "value": "90.6 (83.8–102.3) µg/ml"},
      {"measurement": "IC50", "setting": "[2]; read-out: Median IC50 (Range) rCYP1A2, median (range)", "value": 497, "unit": "µM"}
    ]},
    {"smiles": "C=C1CCC[C@]2(C)CC[C@@H](C(C)(C)O)C[C@@H]12", "note": "[β-Eudesmol]", "values": [
      {"measurement": "binding to hCYP2C19", "setting": "[3]", "value": "not"},
      {"measurement": "binding to hCYP3A4", "setting": "[4]", "value": "bound"},
      {"measurement": "binding to hCYP2C9", "setting": "[5]", "value": "not"},
      {"measurement": "IC50", "setting": "[2]; Median IC50 (Range) rCYP1A2, median (range)", "value": "> 562", "unit": "µM"},
      {"measurement": "binding to hCYP1A2", "setting": "[6]", "value": "bound"}
    ]}
  ]
}
